Measurements: US20150004261A1, “Rhizoma Arisaematis Extracts and Uses Thereof for Wound-Healing Effects” (THE HONG KONG UNIVERSITY OF SCIENCE AND TECHNOLOGY, priority 2011, published 2015)

Tested on: adult human keratinocytes
Assay: In-vitro scratch wound-healing assay
Format: cell-based
Settings: for closure of in vitro scratch wound gap: day 4, Example 9, FIG. 8B
Description: Human neonatal or adult keratinocytes late population doubling time (PD≧15) were trypsinized and seeded onto 6-well tissue culture plates (Falcon) at a density of 3×10^6 cells/well in HKGS (Cascade Biologics) and EpiLife (Cascade Biologics). After an overnight incubation in a 5% CO2 and 37° C. chamber, a bisecting scratch was made with a sterile p1000 micropipette tip and the cells were washed with PBS twice, and then replaced with the basal medium without the supplement for the duration of the assay.
Total extract, fractions and compounds of Rhizoma arisaematis were diluted in the basal medium without the supplement and added to the wells. EGF (Sigma) at 50 ng/mL was used as positive control, and DMSO (0.1%) was used as a vehicle control.
For each scratch, two consecutive fields were selected using the following criteria: relatively little cell debris within the scratch; even scratch, with straight edges; both edges visible under a single field using the 10× objective; fields not too close to either end of the scratch. The pictures were taken from day 1 for five consecutive days. The medium and the extracts were replenished daily for the duration of the assay.
To examine the efficacy of the herb Rhizoma arisaematis (RA) in in vitro closure of scratch wounds, human keratinocytes were incubated with the crude extract (RA-T) or different fractions of RA (100 μg/mL).
To examine the efficacy of the WA sub-fractions of RA in closing in vitro scratch wounds, RA-WA1 and RA-WA2 (1 μg/mL and 10 μg/mL) were tested using human keratinocytes. The scratch assay was performed using the procedures as described in Example 1. RA-WA1 and RA-WA2 at 1 μg/mL and 10 μg/mL were evaluated for their ability to close in vitro wound gap.
To examine the wound-healing effects, 3-O-(9,12-octadecadienoyl)-glyceryl-β-D-galactopyranoside (G192-C07) isolated from the BU fraction of RA (FIG. 8A) was incubated with human keratinocytes. The scratch assay was performed as described in Examples 1 and 5. G192-C07 at 1, 3, 10, and 30 μg/mL were evaluated for their ability to close in vitro wound gap. Epidermal growth factor (EGF, 10 ng/mL) and 0.1% DMSO were used as a positive and a vehicle control, respectively. Photographs of the wounds were taken immediately after the scratch and on day 4.

## CCCCC/C=C\C/C=C\CCCCCCCC(=O)OCC(O)CO[C@@H]1O[C@H](CO)[C@H](O)[C@H](O)[C@H]1O (stereo partly drawn) [Compound G192-C07, 3-O-(9Z,12Z-octadecadienoyl)-glyceryl-β-D-galactopyranoside]
1 μM
  closure of in vitro scratch wound gap: partly closed the wound gap
3 μM
  closure of in vitro scratch wound gap: partly closed the wound gap
10 μM
  closure of in vitro scratch wound gap: partly closed the wound gap
30 μM
  closure of in vitro scratch wound gap: fully closed the wounds by day 4

## EGF: Epidermal growth factor (Sigma), positive control (NSDSECPLSHDGYCLHDGVCMYIEALDKYACNCVVGYIGERCQYRDLKWWELR; Epidermal growth factor; UniProt P01133 971-1023, looked up) [reference compound]
Positive control, 10 ng/mL
  closure of in vitro scratch wound gap: fully closed the wounds by day 4
Positive control, 50 ng/mL, Example 1, FIG. 1
  closure of in vitro scratch wounds: closed the wounds by day 2
